This is an account of results in US12048691B2 (SPERO THERAPEUTICS, INC., priority 2020, dated 2024).

What all share (format): cell-based
In assay [1] the test system is Enterobacterales overproducing AmpC. The assay is described as follows: Broth microdilution susceptibility of isolates overexpressing AmpC. How it is done: Frozen-form broth microdilution panels were manufactured by JMI Laboratories and contained cation-adjusted Mueller-Hinton broth. Quality assurance was performed by sterility checks, colony counts, and testing CLSI recommended quality control reference strains.

A further assay has as its system E. coli. The assay is described as follows: Broth microdilution against US UTI pathogens 2019-2020. As to conditions: E. coli (2,339); cefuroxime: oral breakpoint. In outline:
(§1)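 Urinary Enterobacterales isolates (3,576 total) collected in 2019-2020 from US medical centers across all 9 Census Regions; susceptibility tested centrally by reference broth microdilution. MICs interpreted per CLSI criteria.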
In general terms: Broth dilution looks for growth in wells or tubes with falling amounts of substance.

The next assay deals with Enterobacterales (ENT). The description is as above. In outline: as §1
Another assay relates to K. pneumoniae. The assay is described as above. To be noted: K. pneumoniae (511). In outline:
as §1

Another assay concerns P. mirabilis. The description is as above. To be noted: P. mirabilis (235), cefuroxime: oral breakpoint. In outline:
as §1

The structures appear in SMILES notation. Converted amounts (≈) assume the structure as drawn. Where two headings read alike, the source gives them in different places.

In the case of `C[C@@H](O)[C@H]1C(=O)N2C(C(=O)O)=C(S[C@@H]3CN[C@H](C(=O)Nc4cccc(C(=O)O)c4)C3)[C@H](C)[C@H]12` [Ertapenem, ertapenem], the MIC50 was 0.12 µg/mL (≈ 0.252 µM) in assay [1]; 0.12 μ/ml in assay [1] (Enterobacterales (36)); at most 8 µg/mL with Enterobacterales (ENT); at most 8 µg/mL in the assay with K. pneumoniae (Klebsiella pneumoniae, read-out: MIC50). For the same molecule, the MIC90 in assay [1] turned out to be 2 µg/mL (≈ 4.21 µM); in assay [1] (Enterobacterales (36)), 2 μ/ml; against Enterobacterales (ENT) (All (3,567)), 30 µg/mL (≈ 63.1 µM); against Enterobacterales (ENT) (against ENT, EC, and KPN), 0.03 µg/mL (≈ 0.0631 µM). Further, in assay [1] (Enterobacterales (36)), the “CLSI %1” value was determined as 8.3%. In addition, the “CLSI % R” value in assay [1] (Enterobacterales (36)) is 11.1%. For the same molecule, the “CLSI % S” value in assay [1] (Enterobacterales (36)) came out at 80.6%. For the same molecule, the “% susceptible; CLSI” value in the assay on E. coli is “(99.6) %”; in the assay with Enterobacterales (ENT) (All (3,567), cefuroxime: oral breakpoint) it was “(98.5) %”; in the assay on K. pneumoniae (cefuroxime: oral breakpoint), “(96.3) %”; in the assay with P. mirabilis it was “(100.0) %”; in the assay on P. mirabilis (listed as ERT) it was 100.0%.
